According to patent US5326882A, “Chemiluminescent 3-(substituted Adamant-2'-Ylidene) 1,2-dioxetanes” (Tropix, Inc., priority 1992, dated 1994):

What was measured:
[1] = target: T1, biotinylated pBR322-35mer detected with Avidix-AP (Bos taurus, UniProt P19111); assay: Half-time to maximum chemiluminescence, biotinylated DNA on membranes (Example XXVIII); conditions: 12.5 pg DNA, […] dioxetane in 0.1 M DEA, pH 10.0
T1 construct: purchased Tropix, Inc
Experimental: The performance of AMPPD and Cl-AMPPD on a nylon membrane was compared as follows: 12.5 picograms of biotinylated-pBR322-(35 mer) in 1 μL was spotted onto dry nylon membrane and crosslinked to the membrane with UV light. The membrane subsequently wetted with 1×SSC buffer, incubated with 0.2% casein, 0.1% Tween-20 in phosphate buffered saline (PBS) for 1 hour at room temperature, washed 4 times with 0.3% Tween-20 in PBS, washed twice in Substrate Buffer (0.1 M diethanolamine, 1 mM MgCl2, pH 10.0), and incubated for 5 minutes in 0.25 mM dioxetane in Substrate Buffer. In this fashion, two membranes: one incubated with AMPPD and the second with Cl-AMPPD, were generated. The membranes were then sealed in plastic, attached to the outside of a 12×75 mm glass test tube, and inserted into Turner Model 20-E luminometer equipped with a side-mounted photomultiplier detector and thermally equilibrated to 30° C. The chemiluminescence intensity was then monitored for 20-24 hours.
The half-times to the maximum chemiluminescence intensity obtained with AMPPD and Cl-AMPPD on PVDF and nylon membranes were calculated from data collected as described in Example XXVII, for the nylon membrane. For PVDF membrane, the revised protocol included the second Substrate Buffer wash followed by the membrane incubation for 5 minutes at room temperature in the Tropix NitroBlock™ reagent and a subsequent wash with Substrate Buffer prior to the dioxetane substrates addition. The half-times to the maximum chemiluminescent signal were calculated from the a plot of the logarithm (maximum chnemiluminescent signal minus signal at each time point) as a function of time and is shown in Table 9.
12.5 pg of biotinylated pBR322-35mer was detected with Avidix-AP and 0.24 mM dioxetane in 0.1 M DEA, pH 10.0.

[2] = target: T2, avidin-alkaline phosphatase conjugate (Bos taurus, UniProt P19111); assay: Dot blot of biotinylated pBr 322 35-mer on nylon membrane, instant film (Example XIV); conditions: 0.25 mM, pH 10, nylon membrane, FIG. 11
T2 construct: purchased Sigma, Inc., St. Louis, Mo
T2 sequence (P19111 20-506 limits assumed): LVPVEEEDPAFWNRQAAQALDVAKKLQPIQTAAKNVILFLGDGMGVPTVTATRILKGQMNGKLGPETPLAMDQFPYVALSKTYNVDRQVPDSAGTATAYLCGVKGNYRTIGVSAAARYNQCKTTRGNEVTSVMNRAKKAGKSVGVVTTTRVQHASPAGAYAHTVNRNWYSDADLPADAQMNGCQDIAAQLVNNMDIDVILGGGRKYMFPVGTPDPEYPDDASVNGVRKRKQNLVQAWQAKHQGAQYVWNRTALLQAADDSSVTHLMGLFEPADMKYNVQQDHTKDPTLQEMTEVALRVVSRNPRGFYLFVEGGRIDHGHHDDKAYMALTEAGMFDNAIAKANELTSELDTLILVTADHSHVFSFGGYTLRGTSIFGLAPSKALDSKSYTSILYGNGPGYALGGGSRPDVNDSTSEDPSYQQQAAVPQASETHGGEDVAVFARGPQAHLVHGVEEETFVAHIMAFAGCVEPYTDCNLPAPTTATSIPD
T2 sequence (P02701 25-152 partner): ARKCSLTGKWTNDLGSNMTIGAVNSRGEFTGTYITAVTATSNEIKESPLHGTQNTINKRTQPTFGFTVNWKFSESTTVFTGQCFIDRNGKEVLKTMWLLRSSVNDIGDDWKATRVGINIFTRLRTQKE
Experimental: A strip of neutral BIODYNE A nylon membrane (Pall Corporation, Glen Cove, N.Y.) was dotted twice (side-by-side) with the following concentrations of biotinylated pBr 322 35-mer oligonucleotide probe (Synthetic Genetics, San Diego, Calif.):
Next, the membrane was blocked in 0.2% casein/0.1% Tween 20 detergent in aqueous phosphate buffered saline solution (PBS) for 1 hour, following which 1/5000 diluted avidin-alkaline phosphatase conjugate (Sigma, Inc., St. Louis, Mo.) in 0.2% casein in PBS was added. The membrane was then incubated for 30 minutes, washed twice (for 5 minutes each time) in 0.2% casein/0.1% Tween 20 detergent in PBS, washed four times (for 5 minutes each time) in 0.3% Tween 20 detergent in PBS, and twice (for 5 minutes each time) in aqueous 0.1M diethanolamine containing 1 mM magnesium chloride, pH 10.0.
The membrane was then cut up the middle to give two strips, each bearing one set of dots. One of the strips was incubated for 5 minutes in aqueous AMPPD solution (0.25 mM in 0.1M diethanolamine containing 1 mM magnesium chloride, pH 10), the other for 5 minutes in the corresponding chloroadamant-2'-ylidene compound (0.25 mM in the same buffer). The two strips were then placed in camera luminometers and exposed on Polaroid Type 612 instant black and white film.

[3] = target: T3, alkaline phosphatase (Bos taurus, UniProt P19111); assay: Detection limits for alkaline phosphatase, Berthold LB952T (Example XXII); format: biochemical; conditions: twice background
T3 sequence (P19111 20-506 limits assumed): as the sequence (P19111 20-506 limits assumed) above
Experimental: The detection means for alkaline phosphatase with different chemiluminescent 1,2-dioxetane substrates were determined as follows: Duplicates of serial dilutions (1 to 3) of alkaline phosphates were incubated at room temperature with 0.4 mM dioxetane in 0.1 M diethanolamine, 1 mM MgCl2, pH 10.0, containing 1 mg/ml of either of the polymeric enhancers Enhancer 1 or Enhancer 2, in […].
Following either a 5 or a 20 minute incubation with a substrate, the chemiluminescence intensity was measured as a 5 second integrated Relative Light Units (RLU) and plotted as in FIG. 10. […] The alkaline phosphatase concentrations at twice background were used as the detection limits in Table 5.

[4] = target: T3, alkaline phosphatase; assay: Chemiluminescent signal-to-noise levels with enhancers (Example XXIV); format: biochemical
Experimental: The chemiluminescent signal to noise levels were obtained with 2.83×10^-13 M alkaline phosphatase and various R-substituted adamantyl 1,2-dioxetane phosphates in the presence of several enhancers. All measurements were performed in a Berthold LB952T luminometer at room temperature. First, the background chemiluminescence levels (signal in the absence of the enzyme) of each sample (in triplicate) were measured. Each sample consisted of 0.2 μmoles of dioxetane in 0.45 ml of 0.1 M diethanolamine, 1 mM MgCl2, pH 10.0, without or with 1 mg/ml of the indicated enhancer. Tubes were inserted into the luminometer and the luminescence intensity was measured. Next, the tubes were removed from the luminometer and alkaline phosphatase (50 μl containing 1.415×10^-16 moles) was added to each tube, and the luminescence intensity was measured at 5 and 20 minutes after substrate addition. The final concentration of dioxetane in each tube was 0.4 mM.
All enhancers used at 1 mg/ml in 0.1 M DEA, pH 10. Alkaline phosphatase concentration=2.83×10^-13 M. Measurements performed in a Berthold LB952T Luminometer.

[5] = test system: alkaline phosphatase ("AP"); conditions: cited from earlier work
[6] = PVDF membrane treated with NitroBlock
[7] = enhancer NONE, 5 min, alkaline phosphatase 2.83×10^-13 M

T1 sequence (P19111 20-506 limits assumed): as above

Which “HALF-TIME TO MAXIMUM CHEMILUMINESCENCE” value ([1]; Nylon membrane) does the source give for `COC1(c2cccc(OP(=O)(O)O)c2)OOC12C1CC3CC2CC(Cl)(C3)C1` (stereo not shown) [Cl-AMPPD, disodium 3-(4-methoxyspiro-[1,2-dioxetane-3,2'-(5'-chloro)tricyclo[3.3.1.1^3,7]decan]-4-yl) phenyl phosphate] here?
The value was 47.48 min.

What about the “HALF-TIME TO MAXIMUM CHEMILUMINESCENCE” value [1, 6] of the same compound?
The value was 14.20 min.

And the “chemiluminescence intensity as compared to AMPPD” value [2]?
Its value is “improved chemiluminescence intensity”.

What about the “Detection limit for alkaline phosphatase” value ([3]; ENHANCER 1, 5 MIN) of the same compound?
Its value is 1.0 femtomoles/liter.

And the “Detection limit for alkaline phosphatase” value ([3]; ENHANCER 1, 20 MIN)?
Its value is 0.6 femtomoles/liter.

And the “Detection limit for alkaline phosphatase” value ([3]; ENHANCER 2, 5 MIN)?
The value was 0.8 femtomoles/liter.

And the “Detection limit for alkaline phosphatase” value ([3]; ENHANCER 2, 20 MIN)?
The value was 0.4 femtomoles/liter.

And the chemiluminescent signal-to-noise level ([4]; EMERALD 1 1 mg/ml, 5 min)?
The chemiluminescent signal-to-noise level was 583.

And the chemiluminescent signal-to-noise level ([4]; EMERALD 1 1 mg/ml, 20 min)?
Its chemiluminescent signal-to-noise level is 964.

And the chemiluminescent signal-to-noise level ([4]; EMERALD 2 1 mg/ml, 5 min)?
Its chemiluminescent signal-to-noise level is 839.

What about the chemiluminescent signal-to-noise level ([4]; EMERALD 2 1 mg/ml, 20 min) of the same compound?
Its chemiluminescent signal-to-noise level is 1280.

What about the chemiluminescent signal-to-noise level ([4]; SAPPHIRE 1 1 mg/ml, 5 min) of the same compound?
Its chemiluminescent signal-to-noise level is 577.

And the chemiluminescent signal-to-noise level ([4]; SAPPHIRE 1 1 mg/ml, 20 min)?
The chemiluminescent signal-to-noise level was 827.

And the chemiluminescent signal-to-noise level ([4]; SAPPHIRE 2 1 mg/ml, 5 min)?
The chemiluminescent signal-to-noise level was 1319.

And the chemiluminescent signal-to-noise level ([4]; SAPPHIRE 2 1 mg/ml, 20 min)?
Its chemiluminescent signal-to-noise level is 2221.

And the chemiluminescent signal-to-noise level [4, 7]?
The chemiluminescent signal-to-noise level was 82.

And the chemiluminescent signal-to-noise level ([4]; enhancer NONE, 20 min)?
The chemiluminescent signal-to-noise level was 98.

Which results are given for `COC1(c2cccc(OP(=O)(O)O)c2)OOC12C1CC3CC(C1)CC2C3` (stereo not shown) [AMPPD, 3-(4-methoxyspiro[1,2-dioxetane-3,2'-triyclo[3.3.1.1^3,7]decan]-4-yl)phenyl phosphate, reference compound]?
HALF-TIME TO MAXIMUM CHEMILUMINESCENCE ([1]; Nylon membrane): 99.83 min; HALF-TIME TO MAXIMUM CHEMILUMINESCENCE [1, 6]: 49.51 min; moles whose phosphoryloxy group is cleaved by a single mole of alkaline phosphatase per second [5]: 1,000-5,000 moles per second; Detection limit for alkaline phosphatase ([3]; ENHANCER 1, 5 MIN): 4.0 femtomoles/liter; Detection limit for alkaline phosphatase ([3]; ENHANCER 1, 20 MIN): 1.4 femtomoles/liter; Detection limit for alkaline phosphatase ([3]; ENHANCER 2, 5 MIN): 3.5 femtomoles/liter; Detection limit for alkaline phosphatase ([3]; ENHANCER 2, 20 MIN): 1.1 femtomoles/liter; chemiluminescent signal-to-noise level ([4]; EMERALD 1 1 mg/ml, 5 min): 109; chemiluminescent signal-to-noise level ([4]; EMERALD 1 1 mg/ml, 20 min): 282; chemiluminescent signal-to-noise level ([4]; EMERALD 2 1 mg/ml, 5 min): 113; chemiluminescent signal-to-noise level ([4]; EMERALD 2 1 mg/ml, 20 min): 291; chemiluminescent signal-to-noise level ([4]; SAPPHIRE 1 1 mg/ml, 5 min): 159; chemiluminescent signal-to-noise level ([4]; SAPPHIRE 1 1 mg/ml, 20 min): 364; chemiluminescent signal-to-noise level ([4]; SAPPHIRE 2 1 mg/ml, 5 min): 192; chemiluminescent signal-to-noise level ([4]; SAPPHIRE 2 1 mg/ml, 20 min): 434; chemiluminescent signal-to-noise level [4, 7]: 21; chemiluminescent signal-to-noise level ([4]; enhancer NONE, 20 min): 34
